In ChEMBL document CHEMBL1201862, “PubChem BioAssay data set” (2004):
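Exposure lasted 48 hours, with cells grown in 96-well plates and compounds tested at five concentrations. GI50: concentration for 50% inhibition of growth.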 Activity calls are given as the source filed them. No stated cut-off is given here; in the data, active = GI50 up to about 1.1 µM and inactive = higher. Where a SMILES comes first, the peptide text is derived from it. [ ]: non-standard residue; d: D form. ξ: configuration not given here. ξThz(5,5-Me2) = CC1(C)SCNC1C(=O)O

Experiments:
Experiment in all cases: NCI tumour cell line growth inhibition, 48 h
[1] = test system: A498
[2] = test system: UO-31
[3] = test system: M14
[4] = test system: SF-295
[5] = test system: OVCAR-5
[6] = test system: NCI-H226
[7] = test system: HT-29
[8] = test system: HOP-62
[9] = test system: MCF7
[10] = test system: HOP-92
[11] = test system: SNB-75
[12] = test system: KM12
[13] = test system: SN12C
[14] = test system: HL-60
[15] = test system: EKVX
[16] = test system: Malme-3M
[17] = test system: U-251
[18] = test system: BT-549
[19] = test system: SK-MEL-5

Measured: GI50

C=C(C)[C@@H]1CCC2=C[C@H](OC2=O)[C@@]2(C)C[C@@H]2C2=CC(C)=C(O2)[C@H]1O
inactive: [1] > 75 µM | [2] 60.8 µM | [3] 68.4 µM | [4] 33.3 µM | [5] > 75 µM | [6] 27.7 µM | [7] 23 µM | [8] > 75 µM | [9] 53.2 µM | [10] > 75 µM | [11] 35.5 µM | [12] 25.5 µM | [13] 25.5 µM | [14] 46.6 µM | [15] 36.8 µM | [16] 48.9 µM | [17] > 75 µM

CC1=[N+](C)CCN1C
inactive: [18] > 100 µM | [2] > 100 µM | [3] > 100 µM | [4] > 100 µM | [5] > 100 µM | [6] > 100 µM | [7] > 100 µM | [19] > 100 µM | [8] > 100 µM | [9] > 100 µM | [10] > 100 µM | [11] > 100 µM | [12] > 100 µM | [13] > 100 µM | [14] > 100 µM | [15] > 100 µM | [16] > 100 µM | [17] > 100 µM

Cc1cc(=O)nc(S(=O)(=O)NC(=S)Nc2ccc(Br)cc2)[nH]1
inactive: [1] > 100 µM | [18] > 100 µM | [2] > 100 µM | [3] > 100 µM | [4] > 100 µM | [5] > 100 µM | [6] > 100 µM | [7] > 100 µM | [19] > 100 µM | [8] > 100 µM | [10] 21 µM | [11] > 100 µM | [13] > 100 µM | [14] > 100 µM | [15] 42.1 µM | [16] > 100 µM | [17] > 100 µM

O=c1[nH]c2nc3ccccc3c(=O)n2/c1=C/c1ccco1
inactive: [18] > 100 µM | [2] > 100 µM | [3] > 100 µM | [4] > 100 µM | [5] > 100 µM | [6] > 100 µM | [7] > 100 µM | [19] > 100 µM | [8] > 100 µM | [9] 4.2 µM | [10] > 100 µM | [11] > 100 µM | [12] > 100 µM | [13] > 100 µM | [14] > 100 µM | [15] > 100 µM | [16] > 100 µM | [17] > 100 µM

O=c1nc2n3c4c(cccc4nc-2c(=O)[nH]1)CCC3
inactive: [18] > 100 µM | [2] > 100 µM | [3] > 100 µM | [4] > 100 µM | [5] > 100 µM | [6] > 100 µM | [7] 95.9 µM | [19] > 100 µM | [8] > 100 µM | [9] 58.3 µM | [11] > 100 µM | [12] 37.4 µM | [13] > 100 µM | [14] 70.8 µM | [15] > 100 µM | [16] 21.6 µM | [17] > 100 µM

CCCCN(CCCC)CC(O)c1cc(-c2ccc(Cl)c(Cl)c2)nc2c(Cl)cc(Cl)cc12 (stereo unspecified)
inactive: [1] > 100 µM | [2] 66.4 µM | [4] > 100 µM | [5] > 100 µM | [7] > 100 µM | [8] 66.5 µM | [9] 6.84 µM | [11] > 100 µM | [13] 47.4 µM | [14] 88.3 µM | [15] 49.1 µM | [16] > 100 µM | [17] > 100 µM

CCc1nc2ccc(/N=N/N(C)C)cc2[nH]1
inactive: [18] > 100 µM | [2] > 100 µM | [3] > 100 µM | [5] > 100 µM | [6] > 100 µM | [7] > 100 µM | [19] > 100 µM | [8] > 100 µM | [11] > 100 µM | [12] > 100 µM | [13] > 100 µM | [15] > 100 µM | [16] > 100 µM | [17] > 100 µM

CSCC[C@H](NC(=O)[C@H](CC(C)C)NC(=O)[C@H](Cc1c[nH]cn1)NC(=O)CNC(=O)C1N(C(=O)[C@@H](C)NC(=O)[C@H](Cc2c[nH]c3ccccc23)NC(=O)[C@H](CCC(N)=O)NC(=O)[C@@H](N)CC(N)=O)CSC1(C)C)C(N)=O (stereo partly specified) (H-NQW[dA][ξThz(5,5-Me2)]GHLM-NH2)
inactive: [1] > 25 µM | [3] > 25 µM | [4] > 25 µM | [5] > 25 µM | [6] > 25 µM | [7] > 25 µM | [19] > 25 µM | [8] > 25 µM | [9] > 25 µM | [10] > 25 µM | [11] > 25 µM | [12] > 25 µM | [13] > 25 µM | [14] > 25 µM | [15] > 25 µM | [16] > 25 µM | [17] > 25 µM
